# Laboratory results reported in US12319721B2 (Purdue Research Foundation, priority 2018, dated 2025).
# Where no end group is shown, it is not given here. [ ]: non-standard residue; d: D form. mp4 = 4 mini PEG linker
# What was measured:
# healed fractured femur [1] = test: Femur fracture model, postmortem four-point bend of the healed femur; type: in vivo, Swiss Webster mice; conditions: 16 days, 0.1, 1 and 10 nmol daily subcutaneous, n=5
# [2] = test system: fracture callus of fractured femur; test: Femur fracture model, microCT of the fracture callus, CD-1 mice; type: in vivo, CD-1 male mice; conditions: 4 weeks, 50 nmol daily subcutaneous (50×), n=10
# Experimental: The targeted conjugates were synthesized using standard Fmoc solid-phase peptide synthesis, as described above. To ensure the conjugates' activity, mouse pre osteo-blast (MCTC3-1) cells were treated with the targeted and untargeted compounds for three days at concentrations from 1 pM to 100 nM. After three days of treatment, the cells were harvested, and the ribonucleic acid (RNA) was purified from the cells. Expression levels of ALP, RUNx2, OSX, osteo-pontin (OPN), collagen 1A (Col-1A), OPG, RANKL, scle-rostin gene (SOST), and OC were quantified via quantitative reverse transcription polymerase chain reaction (RT-qPCR). Once the biological activity of the conjugates was confirmed, they were tested in vivo in a fracture model. Aseptic surgical techniques were used to place a 23-gage needle as in intramedullary nail in the femur of anesthetized, 12-week-old Swiss Webster mice for internal fixation before fracture. Femur fractures were induced using a drop weight fracture device from RISystem. The mice received buprenorphine for three days post fracture. […] Fracture healing was assessed using microCT (Scanco Medical Ag). Morphometric parameters were quantified in the 100 widest slices of the fracture callus. Trabecular thickness (TbTh), trabecular spacing (TbSp), total volume (TV), and volume of calcified callus (BV) were calculated. […]
# healed fractured femur [3] = test: Femur fracture model, postmortem four-point bend of the healed femur, CD-1 mice; type: in vivo, CD-1 male mice; conditions: 4 weeks, 50 nmol daily subcutaneous (50×), n=10
# Experimental: The targeted conjugates were synthesized using standard Fmoc solid-phase peptide synthesis, as described above. To ensure the conjugates' activity, mouse pre osteo-blast (MCTC3-1) cells were treated with the targeted and untargeted compounds for three days at concentrations from 1 pM to 100 nM. After three days of treatment, the cells were harvested, and the ribonucleic acid (RNA) was purified from the cells. Expression levels of ALP, RUNx2, OSX, osteo-pontin (OPN), collagen 1A (Col-1A), OPG, RANKL, scle-rostin gene (SOST), and OC were quantified via quantitative reverse transcription polymerase chain reaction (RT-qPCR). Once the biological activity of the conjugates was confirmed, they were tested in vivo in a fracture model. Aseptic surgical techniques were used to place a 23-gage needle as in intramedullary nail in the femur of anesthetized, 12-week-old Swiss Webster mice for internal fixation before fracture. Femur fractures were induced using a drop weight fracture device from RISystem. The mice received buprenorphine for three days post fracture. The mice were dosed subcutaneously each day for two weeks, three weeks, 4 weeks, or 17 days. Fracture healing was assessed using microCT (Scanco Medical Ag). Morphometric parameters were quantified in the 100 widest slices of the fracture callus. Trabecular thickness (TbTh), trabecular spacing (TbSp), total volume (TV), and volume of calcified callus (BV) were calculated. Fractured femurs were tested for strength in a four-point bend to failure using an Electro Force TestBench (TA Instruments). Lower supports were 10 mm apart on the anterior face of the femur in contact with the proximal and distal diaphysis. Upper supports were 4 mm apart and spanned the entire fracture callus on the diaphysis. Force was applied from the posterior face of the femur with a displacement rate of 0.3 mm/sec. Peak load, yield load, stiffness, displacement post yield, work to fracture, and deformation data were generated. […]
# [4] = test system: fracture callus of fractured femur; test: Femur fracture model, microCT of the fracture callus (BV/TV, BV, TbTh, TbSp); type: in vivo, Swiss Webster mice
# Source text: All in vivo data included herein are from Swiss Webster mice. […] 1×concentration represents 1 nmol/day, 10× represents 10 nmol/day, 100×represents 100 nmol/day and most studies have an n of 5.
# The term “BV/TV” means the bone volume divided by total volume of the 100 thickest micro CT slices of the fracture callus.
# The term “TbTh” means the trabecular thickness of the 100 thickest micro CT slices of the fracture callus.
# The term “[…]” means the overall bone volume of the 100 thickest micro CT slices of the fracture callus.
# The term “TbSp” means the spacing between the trabecula in the 100 thickest micro CT slices of the fracture callus.
# The targeted conjugates were synthesized using standard Fmoc solid-phase peptide synthesis, as described above. To ensure the conjugates' activity, mouse pre osteo-blast (MCTC3-1) cells were treated with the targeted and untargeted compounds for three days at concentrations from 1 pM to 100 nM. After three days of treatment, the cells were harvested, and the ribonucleic acid (RNA) was purified from the cells. Expression levels of ALP, RUNx2, OSX, osteo-pontin (OPN), collagen 1A (Col-1A), OPG, RANKL, scle-rostin gene (SOST), and OC were quantified via quantitative reverse transcription polymerase chain reaction (RT-qPCR). Once the biological activity of the conjugates was confirmed, they were tested in vivo in a fracture model. Aseptic surgical techniques were used to place a 23-gage needle as in intramedullary nail in the femur of anesthetized, 12-week-old Swiss Webster mice for internal fixation before fracture. Femur fractures were induced using a drop weight fracture device from RISystem. The mice received buprenorphine for three days post fracture. […] Fracture healing was assessed using microCT (Scanco Medical Ag). Morphometric parameters were quantified in the 100 widest slices of the fracture callus. Trabecular thickness (TbTh), trabecular spacing (TbSp), total volume (TV), and volume of calcified callus (BV) were calculated. Fractured femurs were tested for strength in a four-point bend to failure using an Electro Force TestBench (TA Instruments). Lower supports were 10 mm apart on the anterior face of the femur in contact with the proximal and distal diaphysis. Upper supports were 4 mm apart and spanned the entire fracture callus on the diaphysis. Force was applied from the posterior face of the femur with a displacement rate of 0.3 mm/sec. Peak load, yield load, stiffness, displacement post yield, work to fracture, and deformation data were generated. Statistical analysis was performed using a two-way analysis of variance (ANOVA) and a Tukey post-hoc analysis with significance reported at the 95% confidence level. All animal experiments were performed in accordance with protocols approved by Purdue University's Institutional Animal Care and Use Committee (IACUC).
# healed fractured femur [5] = test: Femur fracture model, postmortem four-point bend of the healed femur; type: in vivo, Swiss Webster mice
# Source text: All in vivo data included herein are from Swiss Webster mice. All mice received an osteotomy on their right femur and received subcutaneous drug administration daily for either 2, 3 or 4 weeks, as indicated, for each compound. 1×concentration represents 1 nmol/day, 10× represents 10 nmol/day, 100×represents 100 nmol/day and most studies have an n of 5.
# The term “Peak Load” means a postmortem 4 point bend of the healed femur. Peak load represents the maximum force the healed femur withstood before it refractured.
# The targeted conjugates were synthesized using standard Fmoc solid-phase peptide synthesis, as described above. To ensure the conjugates' activity, mouse pre osteo-blast (MCTC3-1) cells were treated with the targeted and untargeted compounds for three days at concentrations from 1 pM to 100 nM. After three days of treatment, the cells were harvested, and the ribonucleic acid (RNA) was purified from the cells. Expression levels of ALP, RUNx2, OSX, osteo-pontin (OPN), collagen 1A (Col-1A), OPG, RANKL, scle-rostin gene (SOST), and OC were quantified via quantitative reverse transcription polymerase chain reaction (RT-qPCR). Once the biological activity of the conjugates was confirmed, they were tested in vivo in a fracture model. Aseptic surgical techniques were used to place a 23-gage needle as in intramedullary nail in the femur of anesthetized, 12-week-old Swiss Webster mice for internal fixation before fracture. Femur fractures were induced using a drop weight fracture device from RISystem. The mice received buprenorphine for three days post fracture. The mice were dosed subcutaneously each day for two weeks, three weeks, 4 weeks, or 17 days. Fracture healing was assessed using microCT (Scanco Medical Ag). Morphometric parameters were quantified in the 100 widest slices of the fracture callus. Trabecular thickness (TbTh), trabecular spacing (TbSp), total volume (TV), and volume of calcified callus (BV) were calculated. Fractured femurs were tested for strength in a four-point bend to failure using an Electro Force TestBench (TA Instruments). Lower supports were 10 mm apart on the anterior face of the femur in contact with the proximal and distal diaphysis. Upper supports were 4 mm apart and spanned the entire fracture callus on the diaphysis. Force was applied from the posterior face of the femur with a displacement rate of 0.3 mm/sec. Peak load, yield load, stiffness, displacement post yield, work to fracture, and deformation data were generated. Statistical analysis was performed using a two-way analysis of variance (ANOVA) and a Tukey post-hoc analysis with significance reported at the 95% confidence level. All animal experiments were performed in accordance with protocols approved by Purdue University's Institutional Animal Care and Use Committee (IACUC).
# [6] = 17 days, 1, 10 and 100 nmol daily subcutaneous, n=5
substance,measurement,setting,value
"Annexin_mp4_(D)E10: Annexin 1 N-terminal fragment with 10 glutamic acids, SEQ ID NO: 26, FIG. 81 (Ac-AMVSEFLKQAWFIENEEQEYVQTVY-{mini PEG-mini PEG-mini PEG-mini PEG-dE-dE-dE-dE-dE-dE-dE-dE-dE-dE})",Max load (bone strength),healed fractured femur [1],raises bone strength
same,Work to fracture (bone strength),healed fractured femur [1],raises bone strength
"Preptin(1-34)_mp4_(D)E10: Preptin (1-34) with mp4 linker and 10 glutamic acids, SEQ ID NO: 24, FIG. 70 ({dE-dE-dE-dE-dE-dE-dE-dE-dE-dE-mp4}-VRGASQRWTDYQFFGVPYRPFDPLVAQSTSVD)","BV (bone volume, bone mineralization)",[2],significantly raises bone mineralization
same,BV/TV (bone density),[2],significantly raises bone density
same,Max load (bone strength),healed fractured femur [3],significantly raises bone strength
same,Post yield displacement (bone brittleness),healed fractured femur [3],significantly reduces the bone brittleness
same,Work to fracture (bone strength),healed fractured femur [3],significantly raises bone strength
"QK_mp4_(D)E10: VEGF mimetic 15 amino acid peptide QK attached by mini-peg spacer to 10 glutamic acids, SEQ ID NO: 25 ({dE-dE-dE-dE-dE-dE-dE-dE-dE-dE-mp4}-KLTWQELYQLKYKGI)","BV (bone volume, bone mineralization)",[4]; [6],raises bone mineralization
same,BV/TV (bone density),[4]; [6],raises bone density
same,Max load (bone strength),healed fractured femur [5]; [6],raises bone strength
same,Work to fracture (bone strength),healed fractured femur [5]; [6],raises bone strength
"substance P D10: substance P with 4 mini PEG linker and conjugated with 10 aspartate acids, SEQ ID NO: 4/43, FIG. 32 (chain 1 {Asp-Asp-Asp-Asp-Asp-Asp-Asp-Asp-Asp-Asp-mp4}-RPKPQQFFGLM; chain 2 DDDDDDDDDD[mp4]RPKPQQFFGLM; ends and bridges not checked)",BV/TV,"[4]; 4 weeks, various concentrations (1, 10 and in part 100 nmol/day), subcutaneous daily",dose dependent manner
same,peak load (max load) of healed femur,"healed fractured femur [5]; 4 weeks, 10× (10 nmol/day)",30-35 Newtons
